According to patent US20220023381A1, “VDAC INHIBITORS FOR TREATING AUTOIMMUNE DISEASES” (NATIONAL INSTITUTE FOR BIOTECHNOLOGY IN THE NEGEV LTD., priority 2018, published 2022):
Blank lines part the entries; values can stand above or below the compound they belong to. No end group written: not given here.

Columns and labels:
[1] = test system: EndoG−/− MEFs; experiment: ISG expression in EndoG−/− MEFs (real-time PCR / western blot); assay type: cell-based, mouse
Experimental: Total RNA was extracted using RNeasy Plus Mini Kit (Qiagen) according to the manufacturer's instructions. The first-strand cDNA was synthesized from 2 μg purified mRNA using Accupower RT PreMix (BioNeer). The reaction mixtures were incubated at 42° C. for 60 min and 94° C. for 5 min. Real-time RT-PCR was performed using the LightCycler 96 system (Roche Life Science) with SYBR Green master mix (Roche). The primers used were as follow (5′-3′): EndoG forward (SEQ ID NO:36), and reverse (SEQ ID NO:37); Cxcl10 forward (SEQ ID NO:38), and reverse (SEQ ID NO:39); GAPDH forward (SEQ ID NO:40), and reverse (SEQ ID NO:41); Ifi44 forward (SEQ ID NO:42), and reverse (SEQ ID NO:43); Ifit1 forward (SEQ ID NO:44), and reverse (SEQ ID NO:45); Ifit3 forward (SEQ ID NO:46), and reverse (SEQ ID NO:47); IFNα4 forward (SEQ ID NO:48), and reverse (SEQ ID NO:49); IFNβ forward (SEQ ID NO:50), and reverse (SEQ ID NO:51); Iigp1 forward (SEQ ID NO:52), and reverse (SEQ ID NO:53); ISG15 forward (SEQ ID NO:54), and reverse (SEQ ID NO:55); Oasl2 forward (SEQ ID NO:56), and reverse (SEQ ID NO:57); Rsad2 forward (SEQ ID NO:58), and reverse (SEQ ID NO:59); USP18 forward (SEQ ID NO:60), and reverse (SEQ ID NO:61); VDAC1 forward (SEQ ID NO:62), and reverse (SEQ ID NO:63). GAPDH was used as an internal standard of mRNA expression, and the ratio of the target gene expression to GAPDH expression was calculated using LightCycler 96 Instrument software (Roche). The quality of real-time RT-PCR results was evaluated based on the melting temperature (Tm) of a DNA fragment and melting curve analysis.

[2] = test system: 143B cells; experiment: Quantification of fimtDNA (free intra-mtDNA fragments); assay type: cell-based
Experimental: For the quantification of fimtDNA release, 143B cells were resuspended in mitochondrial isolation buffer and subsequently homogenized 30 times with pestle B (small clearance). The homogenized samples were centrifuged at 1,000 g for 10 min at 4° C. The supernatant was transferred to a new tube and centrifuged at 1,000 g for 5 min at 4° C., and the mitochondrial pellet was collected after the centrifugation of the final supernatant at 11,500 g for 10 min at 4° C. Isolated mitochondria were resuspended in 50 μl CSK buffer containing 10 mM PIPES pH 6.8, 300 mM sucrose, 100 mM NaCl, 3 mM MgCl2, 1 mM EGTA, and 0.05% Triton X-100, for 5 min on ice, and the supernatant (fimtDNA) and CSK-pellet fractions were collected after centrifugation at 17,000 g for 30 min at 4° C. A 1:20 dilution of CSK-sup was used for real-time PCR with fimtDNA primers in each reaction. The primers used were as follow (5′-3′): hfimtNDA forward (SEQ ID NO:70), and reverse (SEQ ID NO:71). CSK-pellet was resuspended in 100 μl lysis buffer containing 20 mM EDTA and proteinase K and incubated at 56° C. overnight. The digested pellet was diluted with water (1:20 to 1:100) and heated at 95° C. for 20 min to inactivate proteinase K, and the CSK-pellet fraction was used for real-time PCR in each reaction. The fimtDNA in CSK-sup was normalized to the mtDNA in CSK-pellet.

[3] = test system: EndoG−/− MEFs; experiment: ROS levels in EndoG−/− MEFs; assay type: cell-based, mouse; conditions: Mito-TEMPO (10 μM), 3 days
Experimental: Cellular cGAMP levels were measured by LC/MS (Agilent Technologies) using 5% perchloric acid extracts of WT and EndoG^−/− MEFs. Intracellular ROS production in MEFs was measured using the oxidative stress indicator CM-H2DCFDA (Invitrogen) with flow cytometry (FACS). Mitochondrial ROS in MEFs was evaluated using the mitochondrial superoxide indicator MitoSOX (Invitrogen) with a confocal microscope (LSM880, Zeiss, and the fluorescence intensity was measured using Zen software (Zeiss). To quantify mitochondrial ROS in human PBMCs, the cells were obtained from heparinized blood using a Ficoll-Paque gradient. The cells were washed with PBS, resuspended in RPMI 1640 medium, and transferred to 96-well plates. Subsequently, the cells were stimulated with calcium ionophore A23187 (25 μM), VBIT-4 (5 μM), and MitoSOX (2 μM) (Life Technologies). After 1 h at 37° C., the fluorescence was measured at 510/595 nm using a microplate reader (Synergy HTX; BIOTEK). Cells without dye were used as the blank control.

[4] = test system: mtDNA (120 bp); experiment: mtDNA-peptide binding (pull-down) assay; set-up: species or system mouse; conditions: biotinylated peptide, Streptavidin Dynabeads
Description: C-terminal biotinylated peptides corresponding to amino acid residues from 1 to 26 of mouse VDAC1 (SEQ ID NO:1) and a mutant peptide (SEQ ID NO:72) with acetylation (N-terminus) and amidation (C-terminus) were synthesized and purified by Genscript (Piscataway, N.J., USA). Mitochondrial DNA was amplified using PCR with mtDNA specific primer of the D-loop region. The primers used were as follow (5′-3′): mtDNA 120 bp forward (SEQ ID NO:73), and reverse (SEQ ID NO:74). Purified mtDNA (120 bp) was incubated rotating end-over-end with peptides and Streptavidin Dynabeads (Invitrogen) for 18 h at 4° C. The peptides were captured by the Streptavidin Dynabeads, and unbound peptides and free mtDNA were removed by extensive washing with PBS. The samples were treated with proteinase K for 30 min at 60° C., and the mtDNA in the supernatant was purified with QIAquick Nucleotide Removal Kit (Qiagen). The purified mtDNA was quantified using real-time RT-PCR with the D-loop3 primers.

[5] = test system: TFAM^KD MEFs; experiment: ISG expression in TFAM KD MEFs; assay type: cell-based, mouse
Experimental: The following mouse embryonic fibroblasts (MEFs) were used: VDAC1/3^−/− (MEFs) and Bak/Bax^−/− MEFs with the respective WT counterparts; WT and cGAS^−/− MEFs; WT and IRF3/IRF7^−/− MEFs; and WT and MICU1^−/− MEFs. All MEFs were grown in complete Dulbecco's modified Eagle's medium (DMEM, Corning) supplemented with 10% fetal bovine serum (FBS, Sigma-Aldrich) and 1% penicillin and streptomycin (antibiotics, Gibco) at 37° C. with 5% CO2. LMTK-1 cells were grown in complete RPMI 1640 medium (Gibco) supplemented with 10% FBS and antibiotics. The LMTK^−-derived cell line lacking mtDNA (ρ^o), LMEB-4, was grown in LMTK-1 growth medium supplemented with uridine (50 μg/ml, Sigma-Aldrich) and sodium pyruvate (1 mM, Gibco). WT (ρ^o) and EndoG^−/− (ρ^o) MEFs were generated by incubation with ethidium bromide (Invitrogen) in complete DMEM supplemented with 15% FBS, antibiotics, uridine (50 μg/ml), and pyruvate (1 mM) for 5 months. […]
Total RNA was extracted using RNeasy Plus Mini Kit (Qiagen) according to the manufacturer's instructions. […] GAPDH was used as an internal standard of mRNA expression, and the ratio of the target gene expression to GAPDH expression was calculated using LightCycler 96 Instrument software (Roche). The quality of real-time RT-PCR results was evaluated based on the melting temperature (Tm) of a DNA fragment and melting curve analysis. […]

[6] = test system: MICU1−/− MEFs; experiment: ISG induction in MICU1−/− MEFs; assay type: cell-based, mouse; conditions: treatment with DIDS
Experimental: (§1) The following mouse embryonic fibroblasts (MEFs) were used: VDAC1/3^−/− (MEFs) and Bak/Bax^−/− MEFs with the respective WT counterparts; WT and cGAS^−/− MEFs; WT and IRF3/IRF7^−/− MEFs; and WT and MICU1^−/− MEFs. All MEFs were grown in complete Dulbecco's modified Eagle's medium (DMEM, Corning) supplemented with 10% fetal bovine serum (FBS, Sigma-Aldrich) and 1% penicillin and streptomycin (antibiotics, Gibco) at 37° C. with 5% CO2. LMTK-1 cells were grown in complete RPMI 1640 medium (Gibco) supplemented with 10% FBS and antibiotics. The LMTK^−-derived cell line lacking mtDNA (ρ^o), LMEB-4, was grown in LMTK-1 growth medium supplemented with uridine (50 μg/ml, Sigma-Aldrich) and sodium pyruvate (1 mM, Gibco). WT (ρ^o) and EndoG^−/− (ρ^o) MEFs were generated by incubation with ethidium bromide (Invitrogen) in complete DMEM supplemented with 15% FBS, antibiotics, uridine (50 μg/ml), and pyruvate (1 mM) for 5 months.
(§2) Total RNA was extracted using RNeasy Plus Mini Kit (Qiagen) according to the manufacturer's instructions. […] GAPDH was used as an internal standard of mRNA expression, and the ratio of the target gene expression to GAPDH expression was calculated using LightCycler 96 Instrument software (Roche). The quality of real-time RT-PCR results was evaluated based on the melting temperature (Tm) of a DNA fragment and melting curve analysis.

[7] = test system: LMTK-1 (WT) cells; experiment: Ifi44 expression in LMTK-1 (WT) cells; assay type: cell-based; conditions: 100 μM DIDS
Experimental: as §1, §2

[8] = test system: LMEB-4 (ρ0) cells; experiment: Ifi44 expression in LMEB-4 (ρ0) cells lacking mtDNA; assay type: cell-based; conditions: 100 μM DIDS
Experimental: as §1, §2

[9] = test system: mitochondria from MICU1−/− MEFs; experiment: mtDNA release from isolated mitochondria of MICU1−/− MEFs; set-up: species or system mouse; conditions: buffer lacking Ca2+, with or without DIDS
Experimental: Therefore, it was postulated that VDAC may be increasing mtDNA release in living cells merely by increasing mitochondrial Ca^2+ and promoting PTP formation. To examine this possibility, mitochondria from MICU1^−/− MEFs, which already have elevated Ca^2+ and ROS levels (FIG. 6F), were isolated and incubated in a buffer lacking Ca^2+ either with or without DIDS.

[10] = test system: VDAC1/3−/− MEFs; experiment: ISG expression in VDAC1/3−/− MEFs; assay type: cell-based, mouse; conditions: treatment with Ca2+ chelator BAPTA
Experimental: as §1, §2

[11] = DIDS (100 μM), real-time PCR and western blot
[12] = treatment with Ca2+ chelator BAPTA

Compound: CC1(C)CC(NC(=O)C[P+](c2ccccc2)(c2ccccc2)c2ccccc2)CC(C)(C)N1[O] [mito-TEMPO]
ISG expression ([1]; Mito-TEMPO (10 μM), 3 days): reduced
fimtDNA ([2]; 50 nM mito-TEMPO): decreased
mROS [3]: reduced

Compound: 26 amino acid VDAC1 N-terminal peptide: C-terminal biotinylated peptide corresponding to amino acid residues 1 to 26 of mouse VDAC1 (MAVPPTYADLGKSARDVFTKGYGFGL-biotin)
pull-down of mtDNA fragment [4]: pulled-down the mtDNA fragment in dose-dependent manner

Compound: VDAC1 N-terminal mutant peptide: VDAC1 N-terminal peptide in which K12, R15, K20 were changed to Ala (MAVPPTYADLGASAADVFTAGYGFGL)
pull-down of mtDNA fragment [4]: not

Compound: CO[C@H]1C[C@@H]2CC[C@@H](C)[C@@](O)(O2)C(=O)C(=O)N2CCCC[C@H]2C(=O)O[C@H]([C@H](C)C[C@@H]2CC[C@@H](OCCO)[C@H](OC)C2)CC(=O)[C@H](C)/C=C(\C)[C@@H](O)[C@@H](OC)C(=O)[C@H](C)C[C@H](C)/C=C/C=C/C=C/1C [everolimus]
fimtDNA ([2]; 100 nM everolimus): decreased

Compound: O=S(=O)(O)c1cc(N=C=S)ccc1C=Cc1ccc(N=C=S)cc1S(=O)(=O)O [DIDS, 4,4′-Diisothiocyanatostilbene-2,2′-disulfonate]
ISG expression [1, 11]: inhibited
ISG expression [5, 11]: inhibited
ISG induction [6]: abrogated
ISG (Ifi44) expression [7]: inhibited
ISG (Ifi44) expression [8]: not
mtDNA released during incubation [9]: decreased in a concentration-dependent manner

ISG expression [5, 12]: decreased
Compound: O=C(O)CN(CC(=O)O)c1ccccc1OCCOc1ccccc1N(CC(=O)O)CC(=O)O [BAPTA]
ISG expression [1, 12]: decreased
ISG expression [10]: not
